The values that follow come from patent EP3448864B1, “SILSE[…] TRANSPORT COMPOUNDS” (Technische Universität Darmstadt, priority 2016, dated 2017).

What all share (format): cell-based
Experiment [1] concerns HeLa-Zellen. Put plainly: Cell proliferation test (MTT) after short incubation. Particulars: free drug in PBS pH 5,5, different concentrations, 1, 2 and 3 h incubation, 1x10^4 HeLa cells, MTT after 18 h. From the text:
Um die Toxizität von Doxorubicin auf HeLa-Zellen zu untersuchen, wurde ein Inkubationszeitabhängiger Test mit dem freien Wirkstoff durchgeführt. Dafür wurde Doxorubicin in PBS bei pH 5,5 gelöst und bei unterschiedlichen Konzentrationen für 1 Stunde, 2 Stunden und 3 Stunden mit 1x10^4 HeLa-Zellen inkubiert. Nach dem Inkubieren wurden die Zellen mit DMEM gewaschen und nach 18 Stunden ein Zellproliferationstest (MTT) durchgeführt.
Danach wurde die oben gezeigte erfindungsgemäße Verbindung mit Doxorubicin als Cargo-Molekülstruktur getestet. Die Verbindung wurde - genau wie die Kontrollen (freies Doxorubicin, unbehandelte Zellen) -je dreifach bei gleicher Konzentration für eine Stunde inkubiert. Um die Disulfidbrücke zu schützen wurden die Zellen mit hoch-glucosehaltigem DMEM ohne Methionin, Cysteine und Glutamine gewaschen. Nach der Inkubation wurden die Zellen mit DMEM gewaschen und nach 18 Stunden wurde ein MTT-Assay durchgeführt. […] Die Ergebnisse sind in FIG.6 zusammen gefasst.

The test system of experiment [2] is HeLa-Zellen. Put plainly: Flow cytometry quantification of cellular uptake. Conditions: for Aufnahme in Zellen: summary statement in the description, citing FIG.1A/1B, 2, 3, 4. From the text:
Um die Aufnahme der Verbindungen in eukaryotische Zellen zu quantifizieren, wurden umfangreiche Durchflusszytometrieuntersuchungen mit den Verbindungen 2 bis 7 (Verbindungen 2 und 5 sind Vergleichsbeispiele) durchgeführt. Ferner wurden auch die aus dem Stand der Technik bekannten zellpenetrierenden Peptide Tat 10, Penetratin 11, Heptaarginin 12 und Decaarginin 13 untersucht. Zu diesem Zweck wurden auch die Peptide mit TAMRA markiert.
Zunächst wurden HeLa-Zellen mit den zu untersuchenden Substanzen bei einer Konzentration von 20 µM in serumfreiem DMEM bei 37°C für 10 Minuten inkubiert. Danach wurden die Zellen dreimal mit PBS gewaschen und nach einem Trypsinverdau nochmals mit PBS gewaschen. Danach wurden die Untersuchungen durchgeführt. […] Die Ergebnisse sind in FIG.2 zusammen gefasst.
(In general: Flow cytometry measures light scatter and fluorescence of single cells or particles in a stream.)

Experiment [3] relates to HeLa-Zellen. Put plainly: Study of the uptake mechanism (temperature, concentration, serum) by fluorescence. On the procedure:
Es wurden weitere Fluoreszenzuntersuchungen an Verbindung 4 durchgeführt. […] Daraus kann angenommen werden, dass der Mechanismus energieunabhängig verläuft.
Ferner wurden HeLa-Zellen mit der Verbindung 4 bei unterschiedlichen Konzentrationen inkubiert. Schon bei 80 nM wurde eine Aufnahme in die Zellen beobachtet. Bei 1 µM wurde der größte Effekt beobachtet.
Darüber hinaus wurde untersucht, ob Serum die Aufnahme in die Zellen behindern kann. Dafür wurde die Inkubationslösung mit 2% fetalem Kälberserum versetzt.

The mark [4] stands for this setting: HeLa cells incubated at different concentrations.

In the case of `COc1cccc2c1C(=O)c1c(O)c3c(c(O)c1C2=O)C[C@@](O)(C(=O)CO)C[C@@H]3O[C@H]1C[C@H](N)[C@H](O)[C@H](C)O1` [Doxorubicin, reference compound], in the experiment on HeLa-Zellen [1], the “Toxizität auf HeLa-Zellen” value is “mit längerer Inkubation nahm die Toxizität zu”.

On to “TAMRA-hepta-4-guanidinobuttersäure-COSS-amid [Verbindung 7]”, for which the “Aufnahme in Zellen” value in the experiment on HeLa-Zellen [2] was “besonders ausgeprägte Aufnahme in Zellen”.

In the case of “TAMRA-hepta-4-trimethylammoniumbuttersäure-COSS-amid [Verbindung 6]”, the “Aufnahme in Zellen” value in the experiment on HeLa-Zellen [2] was “besonders ausgeprägte Aufnahme in Zellen”.

As to TAMRA-heptaguanidin-COSS [Verbindung 4], in the experiment on HeLa-Zellen [3] (setting [4]), the “Konzentration, bei der der größte Effekt beobachtet wurde” value is 1 µM and the “Konzentration, bei der schon eine Aufnahme in die Zellen beobachtet wurde” value is reported as 80 nM. The “Aufnahme bei den unterschiedlichen Temperaturen” value in the experiment on HeLa-Zellen [3] (incubation at 37°C versus 4°C) is listed as “kaum unterschiedlich”. In addition, the “Einfluss von Serum auf die Aufnahme in die Zellen” value in the experiment on HeLa-Zellen [3] (incubation solution with 2% fetal calf serum versus serum-free tests) is recorded as “kein Unterschied”. Further, the “Aufnahme stärker ausgeprägt als die des Tat-Peptids” value in the experiment with HeLa-Zellen [2] (20 µM, serum-free DMEM, 37°C, 10 min, fold versus TAMRA-labelled Tat peptide) was determined as 155 mal. The Aufnahme entry in the experiment with HeLa-Zellen [2] (20 µM, serum-free DMEM, 37°C, 10 min, ranking among compounds 2 to 7 and TAMRA-labelled peptides 10 to 13, FIG.2) is “beste Aufnahme”. Also, in the experiment with HeLa-Zellen [2], the “Aufnahme in Zellen” value is recorded as “besonders ausgeprägte Aufnahme in Zellen”.

As to “TAMRA-heptatrimethylammonium-COSS [Verbindung 3]”, the “Aufnahme in Zellen” value with HeLa-Zellen [2] is listed as “besonders ausgeprägte Aufnahme in Zellen”.
